The target of one test is USP30 (Homo sapiens (Human), UniProt Q70CQ3). Put plainly: Dundee MALDI-TOF mass spectrometry assay (K48-linked diubiquitin cleavage). Format: biochemical. Conditions: USP30 25 ng/μl, K48-linked diubiquitin 5.6 μM, read-out: USP30 IC50 μM (avg). As for the experimental part: USP30 was diluted in a buffer containing 40 mM Tris, 0.01% BSA, 1 mM DTT and K48 in 40 mM Tris, 0.01% BSA.
The compounds were pre-incubated with the USP30 for 5 mins at room temp before the K48 dimer addition. The assay mixture was then incubated for 45 mins at room temp. The assay was stopped by the addition of TFA to a final concentration of 2% (v/v).
Acidified samples of the DUB assays were mixed with 0.5 mM 15N-ubiquitin and then with one part of 2% (v/v) TFA and one part of 2.5 DHAP matrix solution (7.6 mg of 2.5 DHAP in […] ethanol and […] of an aqueous 12 mg ml 1 diammonium hydrogen citrate).

For test [1], the target named is recombinant USP30 (amino acids 57-517 of the human sequence) (Homo sapiens (Human), UniProt Q70CQ3). Nature of the test: In vitro USP30 biochemical assay (Ubiquitin-Rhodamine substrate). Conditions: fluorescence. As for the experimental part: In vitro biochemical assay to establish the potency of compounds for USP30 inhibition: a 384-well plate assay using a fluorophore tagged substrate of USP30 was used for in vitro screening of compounds. Each compound was tested at
Chain of recombinant USP30 (amino acids 57-517 of the human sequence) (Q70CQ3 57-517): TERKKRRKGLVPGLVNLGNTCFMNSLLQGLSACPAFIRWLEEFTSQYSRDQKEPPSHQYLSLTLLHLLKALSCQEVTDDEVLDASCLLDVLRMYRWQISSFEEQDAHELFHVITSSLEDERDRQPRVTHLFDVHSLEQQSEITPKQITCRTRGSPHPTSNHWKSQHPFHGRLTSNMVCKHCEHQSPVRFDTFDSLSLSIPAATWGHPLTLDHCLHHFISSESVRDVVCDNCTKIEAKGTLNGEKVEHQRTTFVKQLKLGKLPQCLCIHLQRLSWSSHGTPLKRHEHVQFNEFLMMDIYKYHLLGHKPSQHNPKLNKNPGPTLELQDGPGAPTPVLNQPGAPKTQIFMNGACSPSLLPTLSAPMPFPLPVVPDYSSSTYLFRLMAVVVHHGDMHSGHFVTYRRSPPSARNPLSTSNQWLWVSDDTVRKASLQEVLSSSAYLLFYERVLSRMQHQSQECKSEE
10 different concentrations (0.5 to 10,000 nM) in duplicate wells. […] Data were analyzed using Graph Pad Prism software with a four-parameter (floating slope) fit to log concentration data to determine IC50s.

Where [2] appears, read: 1.5 nM recombinant USP30, 25 nM Ubiquitin-Rhodamine.
[3] abbreviates: […] recombinant USP30, 25 nM Ubiquitin-Rhodamine.

Chain of USP30 (Q70CQ3 whole entry): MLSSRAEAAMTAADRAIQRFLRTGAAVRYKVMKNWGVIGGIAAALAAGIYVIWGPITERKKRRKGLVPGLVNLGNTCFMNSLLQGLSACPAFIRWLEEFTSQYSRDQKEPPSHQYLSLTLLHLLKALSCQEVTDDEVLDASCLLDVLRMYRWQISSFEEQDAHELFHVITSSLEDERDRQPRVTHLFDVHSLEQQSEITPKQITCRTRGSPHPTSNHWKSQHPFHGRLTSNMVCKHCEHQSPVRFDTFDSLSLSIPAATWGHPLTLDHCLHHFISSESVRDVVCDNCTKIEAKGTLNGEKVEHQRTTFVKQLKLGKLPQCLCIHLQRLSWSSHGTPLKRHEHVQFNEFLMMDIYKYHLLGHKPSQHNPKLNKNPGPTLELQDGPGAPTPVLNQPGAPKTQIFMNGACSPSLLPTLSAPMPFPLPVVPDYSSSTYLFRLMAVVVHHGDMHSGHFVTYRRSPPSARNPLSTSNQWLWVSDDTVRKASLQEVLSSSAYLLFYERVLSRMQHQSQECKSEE

A word on the IC50: it is the concentration that gives 50% inhibition. Turning to `N#CN1CC[C@@H](NC(=O)[C@H](Cc2ccccc2)NC(=O)c2ccc(F)cc2)C1` [Compound I-125], the IC50 (on USP30; in test [1] (setting [2])) was 0.05 to 1 µM throughout.

In the case of `CN1CCC(C[C@H](NC(=O)c2ccc(F)cn2)C(=O)Nc2ccc(S(=O)(=O)NC(C)(C)C(F)(F)F)cc2)CC1` [Compound I-202], the half-maximal inhibitory concentration (IC50) (at USP30; in test [1] (setting [3])) was under 0.05 µM each time. On to `CC(C)C(=O)N1CCC(C[C@H](NC(=O)c2ccc(F)cc2)C(=O)Nc2ccc(S(=O)(=O)NC(C)(C)C)cc2)CC1` [Compound I-161], for which the IC50 (at USP30; in test [1] (setting [3])) was under 0.05 µM throughout.

With `O=C(N[C@@H](CC1CCOCC1)C(=O)Nc1ccc(S(=O)(=O)NC2CCOCC2)cc1)c1ccc(F)cc1` [Compound I-128], the IC50 on USP30 was under 0.05 µM; in test [1] (setting [2]) it was 0.05 to 1 µM.

Regarding `CC(C)(C)NS(=O)(=O)c1cccc2c(NC(=O)[C@H](Cc3ccccc3)NC(=O)c3ccc(F)nc3)cccc12` [Compound I-182], the IC50 (on USP30; in test [1] (setting [3])) was under 0.05 µM each time.

On to `COc1cc(NC(=O)[C@H](CC2CCOCC2)NC(=O)c2ccc(F)cc2)ccc1S(=O)(=O)NC1CCC1` [Compound I-86], for which the IC50 (on USP30; in test [1] (setting [3])) was under 0.05 µM each time. `CN1CCC(C[C@H](NC(=O)c2ccc(F)cc2)C(=O)Nc2ccc(S(=O)(=O)NC3COC3)cc2)CC1` [Compound I-99]: the IC50 (at USP30; in test [1] (setting [2])) was 0.05 to 1 µM each time. In the case of `CC(C)(C)NS(=O)(=O)c1ccc(NC(=O)[C@H](CC2CCNCC2)NC(=O)c2ccc(F)nc2)cc1` [Compound I-186], the IC50 (on USP30; in test [1] (setting [2])) was 0.05 to 1 µM throughout. As for `COc1cc(NC(=O)[C@H](CC2CCNCC2)NC(=O)c2ccc(F)cc2)ccc1S(=O)(=O)NC(C)(C)C` [Compound I-155], the IC50 at USP30 was under 0.05 µM; in test [1] (setting [2]), 0.05 to 1 µM. As to `COc1cc(NC(=O)[C@H](CC2CCOCC2)NC(=O)c2ccc(F)cc2)ccc1S(=O)(=O)NC(C)(C)CO` [Compound I-85], the IC50 (on USP30; in test [1] (setting [2])) was 0.05 to 1 µM throughout. `CC1(NC(=O)[C@H](Cc2ccccc2)NC(=O)c2ccc(F)cc2)CN(C(=O)OCc2ccccc2)C1` [Compound I-252]: the 50% inhibitory concentration (IC50) in test [1] (setting [3]) was over 10 µM.

As for `CN1CCC(C[C@H](NC(=O)c2ccc(F)cc2)[C@@H](O)CNc2ccc(S(=O)(=O)NC(C)(C)C)cc2)CC1` [Compound I-234], the IC50 in test [1] (setting [2]) lay within 1 to 10 µM. On to `CC(C)(C)NS(=O)(=O)c1ccc(NC(=O)[C@H](CC2CCOCC2)NC(=O)c2ccc(F)cc2)cn1` [Compound I-4], for which the IC50 in test [1] (setting [3]) was under 0.05 µM. For `CC(C)(CO)NS(=O)(=O)c1ccc(NC(=O)[C@@H]2C[C@@H](C3CCCCC3)CN2C(=O)c2ccc(F)cc2)cc1` [Compound I-254], the IC50 in test [1] (setting [2]) lay within 1 to 10 µM. In the case of `COc1cc(NC(=O)[C@H](CC2CCN(C)CC2)NC(=O)c2ccc(F)cc2)cnc1S(=O)(=O)NC(C)(C)CO` [Compound I-100], the 50% inhibitory concentration (IC50) in test [1] (setting [2]) lay in the range of 1 to 10 µM.

As for `COc1cc(NC(=O)[C@@H]2C[C@@H](C3CCCCC3)CN2C(=O)c2ccc(F)cc2)ccc1S(=O)(=O)NC(C)(C)CO` [Compound I-259], the 50% inhibitory concentration (IC50) in test [1] (setting [2]) lay within 0.05 to 1 µM.

`CN1CCN(C(=O)N[C@@H](CC2CCNCC2)C(=O)Nc2ccc(S(=O)(=O)NC(C)(C)C)cc2)CC1` [Compound I-219]: the IC50 in test [1] (setting [3]) was over 10 µM. Consider `O=C(Nc1ccc(S(=O)(=O)N[C@@H]2CCOC2)cc1)[C@@H]1C[C@@H](c2ccccc2)CN1C(=O)c1ccc(F)cc1` [Compound I-261], for which the IC50 in test [1] (setting [2]) fell in the range of 1 to 10 µM.

As to `CC(C)(C)NS(=O)(=O)c1ccc(NC(=O)[C@H](Cc2ccccc2)NC(=O)c2cc[nH]n2)cc1` [Compound I-178], the half-maximal inhibitory concentration (IC50) in test [1] (setting [2]) was 1 to 10 µM. Consider `O=C(Nc1ccc(S(=O)(=O)N[C@@H]2CCOC2)nc1)[C@@H]1C[C@@H](c2ccccc2)CN1C(=O)c1ccc(F)cc1` [Compound I-270], for which, in test [1] (setting [2]), the IC50 lay within 1 to 10 µM. In the case of `CO[C@H]1C[C@@H](C(=O)Nc2ccc(S(=O)(=O)NC3COC3)cc2)N(C(=O)c2ccc(F)cc2)C1` [Compound I-289], the IC50 in test [1] (setting [3]) is over 10 µM. As for `CC(C)(C)NS(=O)(=O)c1ccc(NC(=O)[C@H](CC#N)NC(=O)c2ccc(F)cc2)cc1` [Compound I-243], the half-maximal inhibitory concentration (IC50) in test [1] (setting [2]) is 0.05 to 1 µM. Take `CC(C)(C)NS(=O)(=O)c1ccc(NC(=O)[C@H](CCO)NC(=O)c2ccc(F)cc2)cc1` [Compound I-242]: the IC50 in test [1] (setting [2]) fell in the range of 0.05 to 1 µM. Same read-out and setting: the figure for `O=C(N[C@@H](Cc1ccccc1)C(=O)Nc1ccc(S(=O)(=O)NCc2ccn[nH]2)cc1)c1ccc(F)cc1` [Compound I-226] is 0.05 to 1 µM. As for `CC(C)C[C@@H](NC(=O)c1ccc(F)cc1)C(=O)Nc1ccc(S(=O)(=O)NC(C)(C)CCO)cc1` [Compound I-21, (R)-4-fluoro-N-(1-((4-(N-(4-hydroxy-2-methylbutan-2-yl)sulfamoyl)phenyl)amino)-4-methyl-1-oxopentan-2-yl)benzamide], in test [1] (setting [3]), the 50% inhibitory concentration (IC50) is over 10 µM.

As for `CN1CCN(C(=O)N[C@@H](Cc2ccccc2)C(=O)Nc2cccc3c(S(=O)(=O)NC(C)(C)C)cccc23)CC1` [Compound I-198], in test [1] (setting [3]), the half-maximal inhibitory concentration (IC50) was over 10 µM. On to `CC(C)N1CCC(C[C@H](NC(=O)c2ccc(F)cc2)C(=O)Nc2ccc(S(=O)(=O)NC(C)(C)C)cc2)CC1` [Compound I-117], for which the IC50 on USP30 is under 0.05 µM.

Take `CC(C)(C)NS(=O)(=O)c1ccc(NC(=O)[C@H](Cc2ccccc2)NC(=O)N2CCOCC2)cc1` [Compound I-184]: in test [1] (setting [2]), the IC50 is 1 to 10 µM. For the compound `CC(C)(C)NS(=O)(=O)c1ccc(NC(=O)[C@H](CC2COC2)NC(=O)c2ccc(F)cc2)cc1` [Compound I-38, (S)—N-(1-((4-(N-(tert-butyl)sulfamoyl)phenyl)amino)-3-(oxetan-3-yl)-1-oxopropan-2-yl)-4-fluorobenzamide], the half-maximal inhibitory concentration (IC50) in test [1] (setting [2]) was in the range of 0.05 to 1 µM. The same measure, in the same setting: in the case of `Cn1nccc1CCNS(=O)(=O)c1ccc(NC(=O)[C@H](Cc2ccccc2)NC(=O)c2ccc(F)cc2)cc1` [Compound I-237] it was 0.05 to 1 µM; in that of `CN1CCC(NS(=O)(=O)c2ccc(NC(=O)[C@H](CC3CCOCC3)NC(=O)c3ccc(F)cc3)cn2)CC1` [Compound I-98], 1 to 10 µM. As for `O=C(N[C@@H](Cc1ccccc1)C(=O)N[C@@H]1CCN(S(=O)(=O)NC2COC2)C1)c1ccc(F)cc1` [Compound I-169], in test [1] (setting [3]), the 50% inhibitory concentration (IC50) is over 10 µM. Regarding `CC(C)(C)NS(=O)(=O)c1cccc2c(NC(=O)[C@H](CC3CCOCC3)NC(=O)c3ccc(F)cc3)cccc12` [Compound I-8, (S)—N-(1-((5-(N-(tert-butyl)sulfamoyl)naphthalen-1-yl)amino)-1-oxo-3-(tetrahydro-2H-pyran-4-yl)propan-2-yl)-4-fluorobenzamide], in test [1] (setting [3]), the 50% inhibitory concentration (IC50) was under 0.05 µM. In the case of `CN(C(=O)c1ccc(F)cc1)[C@@H](Cc1ccccc1)C(=O)Nc1ccc(S(=O)(=O)NCc2ccnn2C)cc1` [Compound I-229], the IC50 in test [1] (setting [2]) was 1 to 10 µM. Regarding `CC(C)(C)NS(=O)(=O)c1ccc(NC(=O)[C@H](Cc2ccccc2)c2nnc(-c3ccc(F)cc3)o2)cc1` (stereo in doubt) [Compound I-56, N-(4-(N-(tert-butyl)sulfamoyl)phenyl)-2-(5-(4-fluorophenyl)-1,3,4-oxadiazol-2-yl)-3-phenylpropanamide], the IC50 in test [1] (setting [2]) fell in the range of 1 to 10 µM. As for `CC(C)(NS(=O)(=O)c1ccc(NC(=O)[C@H](CC2CCOCC2)NC(=O)c2ccc(F)cn2)cc1)C(F)(F)F` [Compound I-207], in test [1] (setting [2]), the half-inhibitory concentration (IC50) is 0.05 to 1 µM. Turning to `CC(C)(C)NS(=O)(=O)c1ccc(NC(=O)[C@H](Cc2ccccc2)NC(=O)c2ccc3nc[nH]c3c2)cc1` [Compound I-194], the IC50 in test [1] (setting [2]) fell in the range of 1 to 10 µM.

Turning to `O=C(N[C@@H](Cc1ccccc1)C(=O)Nc1ccc(S(=O)(=O)NCc2nnc[nH]2)cc1)c1ccc(F)cc1` [Compound I-232], the half-inhibitory concentration (IC50) in test [1] (setting [2]) was 1 to 10 µM. With `O=C(NC(CC1CCNCC1)C(=O)Nc1ccc(S(=O)(=O)NC2COC2)cc1)c1ccc(F)cc1` (stereo not drawn) [Compound I-120], the half-maximal inhibitory concentration (IC50) in test [1] (setting [2]) is 0.05 to 1 µM. Consider `CCN1CCC(C[C@H](NC(=O)c2ccc(F)cc2)C(=O)Nc2ccc(S(=O)(=O)NC(C)(C)CO)cc2)CC1` [Compound I-45], for which the IC50 in test [1] (setting [2]) lay in the range of 0.05 to 1 µM. As for `CN1CCC(C[C@H](NC(=O)c2ccc(F)cc2)C(=O)Nc2ccc(S(=O)(=O)NC3CCOCC3)nc2)CC1` [Compound I-140], in test [1] (setting [2]), the half-maximal inhibitory concentration (IC50) was 0.05 to 1 µM. Regarding `COc1cc(NC(=O)[C@@H]2C[C@@H](C3CCCCC3)CN2C(=O)c2ccc(F)cc2)cnc1S(=O)(=O)NC(C)(C)C` [Compound I-255], in test [1] (setting [2]), the IC50 was 1 to 10 µM. Still for that read-out and setting: in the case of `CC(C)(C)NC(=O)N1CCC(NC(=O)[C@H](Cc2ccccc2)NC(=O)c2ccc(F)cc2)CC1` [Compound I-57, (S)—N-(tert-butyl)-4-(2-(4-fluorobenzamido)-3-phenylpropanamido)piperidine-1-carboxamide] it was 1 to 10 µM; in that of `CC(C)C[C@H](NC(=O)c1ccc(F)cn1)C(=O)Nc1ccc(S(=O)(=O)NC(C)(C)C(F)(F)F)nc1` [Compound I-210], 0.05 to 1 µM; in that of `CC(C)(C)NS(=O)(=O)c1ccc(NC(=O)[C@@H]2C[C@@H](C3CCCCC3)CN2C(=O)c2ccc(F)cc2)cc1` [Compound I-253], 0.05 to 1 µM. Take `CC(=O)O[C@H]1C[C@@H](C(=O)Nc2ccc(S(=O)(=O)N[C@@H]3CCOC3)cc2)N(C(=O)c2ccc(F)cc2)C1` [Compound I-284]: in test [1] (setting [3]), the IC50 is over 10 µM. On to `COc1cc(NC(=O)[C@H](CC2CCN(C)CC2)NC(=O)c2ccc(F)cc2)cnc1S(=O)(=O)NC(C)(C)C` [Compound I-80], for which the IC50 in test [1] (setting [2]) was in the range of 0.05 to 1 µM.

The record behind these values is patent publication US20250162989A1, “USP30 INHIBITORS AND USES THEREOF” (Vincere Biosciences, Inc., priority 2021, published 2025).
